The structures appear in SMILES notation. Counter-ions that a name gives are not always drawn.

For the first assay, the target named is Acetylcholinesterase (Torpedo californica, UniProt P04058). Nature of the assay: Inhibition of Torpedo californica AChE. Also noted: species or system Tetronarce californica.
Chain of Acetylcholinesterase (P04058 whole entry): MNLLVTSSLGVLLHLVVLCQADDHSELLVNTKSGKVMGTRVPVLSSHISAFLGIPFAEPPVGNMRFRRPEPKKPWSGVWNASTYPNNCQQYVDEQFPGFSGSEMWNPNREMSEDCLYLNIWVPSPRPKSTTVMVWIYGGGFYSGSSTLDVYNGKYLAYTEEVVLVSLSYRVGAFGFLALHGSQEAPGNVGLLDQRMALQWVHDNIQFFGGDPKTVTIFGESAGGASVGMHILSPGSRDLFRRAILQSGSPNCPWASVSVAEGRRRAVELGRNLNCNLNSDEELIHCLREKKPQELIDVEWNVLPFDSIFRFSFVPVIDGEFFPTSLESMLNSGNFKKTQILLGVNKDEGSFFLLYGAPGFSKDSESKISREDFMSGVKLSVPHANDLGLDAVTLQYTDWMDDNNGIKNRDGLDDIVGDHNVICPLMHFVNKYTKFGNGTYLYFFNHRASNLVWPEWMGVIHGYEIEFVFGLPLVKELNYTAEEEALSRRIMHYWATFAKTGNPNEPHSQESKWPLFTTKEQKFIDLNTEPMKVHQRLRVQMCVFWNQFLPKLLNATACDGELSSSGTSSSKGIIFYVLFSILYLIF
Settings: not given
As usually defined, the IC50 is the midpoint of a concentration-inhibition curve. Higher therefore signals weaker potency in that assay. The molecule `CNC(=O)Oc1ccc2c(c1)[C@]1(C)CC[N+](C)([O-])[C@@H]1N2C` (stereo partly drawn) [GENESERINE] displayed an IC50 of 1.74 µM.

`CC(C)c1ccccc1NC(=O)Oc1ccc2c(c1)[C@]1(C)CC[N+](C)([O-])[C@@H]1N2C` (stereo partly drawn) registered an IC50 of 8.38 µM.

In the case of `CN1c2ccc(OC(=O)Nc3ccccc3)cc2[C@]2(C)CC[N+](C)([O-])[C@H]12` (stereo partly drawn), the IC50 stood at 4.74 µM.

The molecule `CCCc1ccccc1NC(=O)Oc1ccc2c(c1)[C@]1(C)CC[N+](C)([O-])[C@@H]1N2C` (stereo partly drawn) gave a concentration for half-maximal inhibition (IC50) of 8.44 µM.

As to `CCc1ccccc1NC(=O)Oc1ccc2c(c1)[C@]1(C)CC[N+](C)([O-])[C@@H]1N2C` (stereo partly drawn), half-maximal inhibition (IC50) required 5.12 µM. Compared with the last molecule, the IC50 is about 1.6-fold lower.

Turning to `Cc1cc(C)cc(NC(=O)Oc2ccc3c(c2)[C@]2(C)CC[N+](C)([O-])[C@@H]2N3C)c1` (stereo partly drawn), the midpoint of inhibition, the IC50, lay at 8.58 µM.

`Cc1cccc(NC(=O)Oc2ccc3c(c2)[C@]2(C)CC[N+](C)([O-])[C@@H]2N3C)c1` (stereo partly drawn) gave an IC50 of 5.13 µM.

Take `CCN(C)C(=O)Oc1cccc([C@H](C)N(C)C)c1` [RIVASTIGMINE TARTRATE]: the midpoint of inhibition, the IC50, lay at 187 µM.

In the case of `CCc1cccc(NC(=O)Oc2ccc3c(c2)[C@]2(C)CC[N+](C)([O-])[C@@H]2N3C)c1` (stereo partly drawn), half-maximal inhibition (IC50) required 9.8 µM.

Regarding `Cc1cccc(C)c1NC(=O)Oc1ccc2c(c1)[C@]1(C)CC[N+](C)([O-])[C@@H]1N2C` (stereo partly drawn), 186 µM corresponded to half-maximal inhibition (IC50).

The molecule `Cc1ccc(NC(=O)Oc2ccc3c(c2)[C@]2(C)CC[N+](C)([O-])[C@@H]2N3C)cc1` (stereo partly drawn) had an IC50 of 7.61 µM.

For the molecule `Cc1ccccc1NC(=O)Oc1ccc2c(c1)[C@]1(C)CC[N+](C)([O-])[C@@H]1N2C` (stereo partly drawn), the IC50 turned out to be 4.04 µM.

For the next assay, the target named is T1, Acetylcholinesterase (Mus musculus) (UniProt P21836).
T1 sequence (whole entry): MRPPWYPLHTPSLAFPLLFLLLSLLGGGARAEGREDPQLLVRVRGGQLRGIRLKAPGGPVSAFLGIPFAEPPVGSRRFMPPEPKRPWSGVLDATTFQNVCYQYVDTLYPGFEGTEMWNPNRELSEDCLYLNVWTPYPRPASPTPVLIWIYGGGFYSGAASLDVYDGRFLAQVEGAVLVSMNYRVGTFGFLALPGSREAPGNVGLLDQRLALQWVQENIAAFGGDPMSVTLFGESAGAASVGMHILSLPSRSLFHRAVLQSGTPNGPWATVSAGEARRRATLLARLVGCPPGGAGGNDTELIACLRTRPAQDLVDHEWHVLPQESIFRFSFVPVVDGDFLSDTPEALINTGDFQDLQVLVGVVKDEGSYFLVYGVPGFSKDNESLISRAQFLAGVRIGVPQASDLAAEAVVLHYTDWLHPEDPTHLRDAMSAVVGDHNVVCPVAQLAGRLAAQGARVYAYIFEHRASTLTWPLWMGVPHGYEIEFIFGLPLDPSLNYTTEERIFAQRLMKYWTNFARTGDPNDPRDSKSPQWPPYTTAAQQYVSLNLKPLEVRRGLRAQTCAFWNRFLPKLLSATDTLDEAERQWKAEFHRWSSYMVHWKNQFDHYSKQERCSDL
To be noted: CD1, Brain, 1.5 mg/kg.
Description: Inhibition of AChE in CD1 mouse brain at 1.5 mg/kg, po after 4 hrs
The inhibition is the drop in the measured response relative to a control, in per cent. `CCN(C)C(=O)Oc1cccc([C@H](C)N(C)C)c1` [RIVASTIGMINE TARTRATE]: the inhibition came out at 73%.
